Reference: ChEMBL document CHEMBL4118231, “Pyrroloquinoline scaffold-based 5-HT6R ligands: Synthesis, quantum chemical and molecular dynamic studies, and influence of nitrogen atom position in the scaffold on affinity” (Bioorg Med Chem, 2018)

Target: 5-hydroxytryptamine receptor 6 (Homo sapiens, UniProt P50406)
Experiment: Displacement of [3H]LSD from human 5-HT6R expressed in HEK293 cell membranes after 1 hr by microbeta counting method

5-hydroxytryptamine receptor 6, sequence (P50406 whole entry): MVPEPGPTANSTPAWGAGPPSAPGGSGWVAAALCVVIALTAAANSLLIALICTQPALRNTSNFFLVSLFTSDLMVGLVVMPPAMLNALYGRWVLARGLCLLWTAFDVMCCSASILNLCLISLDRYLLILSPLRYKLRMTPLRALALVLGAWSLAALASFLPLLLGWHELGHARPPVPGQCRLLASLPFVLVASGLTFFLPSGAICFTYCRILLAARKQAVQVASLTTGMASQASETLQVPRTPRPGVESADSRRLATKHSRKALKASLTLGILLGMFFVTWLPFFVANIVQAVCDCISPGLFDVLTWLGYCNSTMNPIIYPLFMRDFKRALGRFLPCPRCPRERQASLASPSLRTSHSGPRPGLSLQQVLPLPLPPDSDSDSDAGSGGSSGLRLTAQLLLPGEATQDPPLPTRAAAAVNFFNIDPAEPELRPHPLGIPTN

SMILES | Ki
O=S(=O)(c1cccc(Cl)c1)n1cc(C2=CCNCC2)c2ccc3cccnc3c21 | 49 nM
Clc1cccc(Cn2cc(C3=CCNCC3)c3ccc4cccnc4c32)c1 | 269 nM
O=S(=O)(c1ccccc1)n1cc(C2=CCNCC2)c2ccc3cccnc3c21 | 131 nM
O=S(=O)(c1cccc(F)c1)n1cc(C2=CCNCC2)c2ccc3ncccc3c21 | 365 nM
O=S(=O)(c1cccc(Br)c1)n1cc(C2=CCNCC2)c2ccc3ncccc3c21 | 137 nM
O=S(=O)(c1cccc(Cl)c1)n1cc(C2=CCNCC2)c2ccc3ncccc3c21 | 427 nM
O=S(=O)(c1ccccc1)n1cc(C2=CCNCC2)c2ccc3ncccc3c21 | 711 nM
O=S(=O)(c1cccc(Br)c1)n1cc(C2=CCNCC2)c2ccc3cccnc3c21 | 61 nM
O=S(=O)(c1cccc(F)c1)n1cc(C2=CCNCC2)c2ccc3cccnc3c21 | 45 nM
